Positions count from the first letter of the chain named.
Assays:
hPAH = target: T1, hPAH (Homo sapiens, UniProt P00439); assay: SPR screening and affinity determination on immobilized hPAH (Biacore T200); type: binding; conditions: SPR, 25° C., compound 0-500 μM in 5% DMSO; affinities said to be overestimated, relative KD reliable; read-out: KD (μM) ± SER
T1 sequence (P00439 1-452): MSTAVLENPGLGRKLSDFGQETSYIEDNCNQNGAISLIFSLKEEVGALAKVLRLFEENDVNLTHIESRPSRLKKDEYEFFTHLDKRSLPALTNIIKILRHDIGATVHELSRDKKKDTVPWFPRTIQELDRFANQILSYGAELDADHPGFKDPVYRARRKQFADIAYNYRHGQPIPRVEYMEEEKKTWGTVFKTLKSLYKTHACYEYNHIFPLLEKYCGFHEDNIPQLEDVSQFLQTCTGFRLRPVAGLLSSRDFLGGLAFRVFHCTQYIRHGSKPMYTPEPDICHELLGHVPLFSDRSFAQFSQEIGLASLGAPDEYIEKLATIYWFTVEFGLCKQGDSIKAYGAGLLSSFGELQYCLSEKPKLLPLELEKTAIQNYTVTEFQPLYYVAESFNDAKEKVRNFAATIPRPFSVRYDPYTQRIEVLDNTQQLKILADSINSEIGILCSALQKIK
Procedure: For detailed determination of binding affinity of Compound 53 and derivatives (FIG. 4) SPR was performed on a Biacore T200 (GE Healthcare Life Sciences) at a temperature of 25° C. A hPAH solution at 0.08 μg/μl in a final volume of 200 μl in acetate buffer pH 5.0 was immobilized onto series S sensor chip CM5 by the standard amine coupling procedure at a flow rate of 30 μl/min and PBS-P+ buffer as running buffer aiming for RU 20000. After the coupling reaction the surface of the sensor chip was washed to eliminate unbound species with HBS buffer (0.01 M NaHepes pH 7.4, 0.15 M NaCI) at steady flow of 20 μl/min for 1 hour until the baseline drift was around 0.05 RU/s; note that an early injection of 40 μl dithiothreitol (DTT) 10 mM in HBS allowed for this reduced washing time.
For the screening, compounds were assayed at a concentration of 200 μM, with 5% DMSO in duplicates, including negative controls with 5% DMSO, positive controls, with 200 μM BH2 and solvent correction was also performed. For KD calculations, a compound concentration 0-500 μM (in 5% DMSO) were applied at otherwise analogous experimental design and analyses were performed using Biacore T200 Evaluation Software, version 2.0 (GE Healthcare Life Sciences).
All the responses from the compounds of the screening were subjected to blank subtraction (negative control 5% DMSO), molecular weight adjustment and solvent correction to account for differences in bulk response. Next a cut-off value for the screening was selected based on the response of the positive control of our experiments: RU BH2+3*SD (2.88+3*1.79=8.27). In this manner, from the 11 derivatives of Compound 53 tested (see FIG. 4) we weeded out those compounds with a lower response than 8.27, namely #53.2, #53.9 and #53.11.
In addition and for the rest of the compounds which continued our workflow, binding affinities were determined and the results are shown in the following table. The selected conditions to measure affinity are selected for high throughput measurements, but the affinities are overestimated though the relative KD for the different compounds are reliable.

R252W-PAH = target: T2, R252W-PAH (Homo sapiens, UniProt P00439, R252W); assay: PAH protein level and activity in HEK293 EBNA cells transiently expressing PKU mutant R252W; type: cell-based
T2 construct: expressed in transfected cells; host or cells: HEK293 EBNA, transient, pcDNA3-PAH
T2 sequence (P00439 1-452 R252W): T1 sequence (P00439 1-452) with R252W
Procedure: A similar assay was used to measure PAH activity in cells lysates using 1 mM L-Phe and 200 μM BH4 with 10 min reactions and about 20-90 μg of total protein. Free amino acids and contaminants of low molecular weight were previously removed from the extracts using Zebra Desalt Spin columns (Pierce Biotechnology).
For transient expression of WT and mutant PAH, HEK293 EBNA (Epstein-Barr virus) cells, with low endogenous PAH expression, were grown as above. Cells were grown for 19 h, when they were transfected transiently transfected with […] of pcDNA3-PAH vector (WT or mutant PAH constructs R261Q, R252W, I65T and R68S) using the Lipofectamine system (Life Technologies™) as described by the manufacturer. Compound 53, with and without BH2 (200 μM) was added after 5 h of transfection at 200 μM concentration in 1% DMSO, and further incubated for 24 h, at which time the cells were harvested and stored at −80° C. In all cases a parallel negative control with only 1% DMSO was included. Cell lysates were prepared as indicated above.
Western blot analyses were performed on either cell extracts from permanently expressing or transiently transfected HEK293 cell lysates after SDS-PAGE (10% acrylamide) with 5-10 μg total protein in each lane. […] Neomycin phosphotransferase II was used as a marker of the plasmid transfection efficiency, and GAPDH was used as loading controls. […]

[1] = target: tryptophan hydroxylase 2 (TPH2) (Homo sapiens, UniProt Q8IWU9); conditions: 68.9 μM, respect to 2% DMSO controls
tryptophan hydroxylase 2 (TPH2), sequence (Q8IWU9 whole entry, species assumed): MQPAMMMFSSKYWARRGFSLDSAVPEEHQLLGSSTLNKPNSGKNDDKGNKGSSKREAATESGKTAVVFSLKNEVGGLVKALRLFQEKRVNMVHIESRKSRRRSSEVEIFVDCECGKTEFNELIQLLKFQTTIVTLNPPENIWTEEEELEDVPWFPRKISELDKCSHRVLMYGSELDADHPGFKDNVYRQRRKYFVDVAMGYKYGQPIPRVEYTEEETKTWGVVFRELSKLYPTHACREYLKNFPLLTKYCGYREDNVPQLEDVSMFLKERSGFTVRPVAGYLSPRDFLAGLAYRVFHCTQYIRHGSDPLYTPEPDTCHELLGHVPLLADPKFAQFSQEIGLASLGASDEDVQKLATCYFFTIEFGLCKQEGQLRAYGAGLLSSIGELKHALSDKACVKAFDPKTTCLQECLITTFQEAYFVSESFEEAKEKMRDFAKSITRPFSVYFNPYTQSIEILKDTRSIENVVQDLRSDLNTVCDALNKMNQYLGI

COc1cc(Cc2cnc(N)nc2N)cc(OC)c1OC [c53, trimethoprim]
Kd (hPAH): 58.5 ± 35.8 µM | effect on mutant R252W (protein, activity) (R252W-PAH; 200 μM alone, 24 h, 1% DMSO): neither the compound or BH4 affected | protein content, mutant R252W, compound and cofactor analogue together (R252W-PAH; Compound 53 200 μM plus BH2 200 μM, 24 h (FIG. 2D)): a little stimulation of the protein content | effect on TPH2 activity [1]: did not have large effect

Source: patent US10265303B2, “Hyperphenylalaninemia and treatments thereof” (BERGEN TEKNOLOGIOVERFØRING AS, priority 2015, dated 2019)
